Results from patent publication US8497307B2, “Aryl guanidine F1F0-ATPase inhibitors and related methods” (The Regents of the University of Michigan, priority 2008, dated 2013).

Test system: Ramos cells
Assay: Cytotoxicity in Ramos cells (cell death)
Format: cell-based
Experimental: The compounds listed in Table 7 were tested for cytotoxicity in Ramos cells. The assay was conducted as described in K. M. Johnson et al. Chemistry & Biology 2005, 12, 485-496.

Row | SMILES | EC50
1 | N#Cc1cccc(C(=O)N=C(Nc2cccc(C3CC3)c2)Nc2ccc3oc(=O)[nH]c3c2)c1 [Compound I-136] | < 10 µM
2 | CC(C)(C)c1ccccc1NC(=NC(=O)c1ccc(C(F)(F)F)c(F)c1)Nc1ccc2oc(=O)[nH]c2c1 [Compound I-131] | < 10 µM
3 | CC(C)(C)c1ccccc1NC(=NC(=O)c1cccc(Cl)c1)NCCc1c[nH]cn1 [III-6] | < 10 µM
4 | N#Cc1cccc(C(=O)N=C(Nc2ccc3[nH]c(=O)oc3c2)Nc2ccccc2C(F)(F)F)c1 [Compound I-101] | > 10 µM
5 | O=C(N=C(Nc1ccc2[nH]c(=O)oc2c1)Nc1ccc(Cl)cc1F)c1cccc(C(F)(F)F)c1 [Compound I-99] | > 10 µM
6 | CC(C)(C)c1ccc(NC(=NC(=O)c2cccc(C#N)c2)Nc2ccc3[nH]c(=O)oc3c2)cc1 [Compound I-119] | < 10 µM
7 | CC(C)(C)c1ccccc1NC(=NC(=O)c1ccc(C(F)(F)F)cc1F)Nc1ccc2oc(=O)[nH]c2c1 [Compound I-132] | > 10 µM
8 | CC(C)(C)c1ccccc1NC(=NC(=O)c1ccc(C(F)(F)F)cc1F)Nc1ccc2[nH]c(=O)oc2c1 [Compound I-107] | < 10 µM
9 | O=C(N=C(Nc1ccc2[nH]c(=O)oc2c1)Nc1ccccc1C(F)(F)F)c1ccc(Br)cc1 [Compound I-17] | < 10 µM
10 | N#Cc1cccc(C(=O)N=C(Nc2ccc(C3CC3)cc2)Nc2ccc3[nH]c(=O)oc3c2)c1 [Compound I-138] | < 10 µM
11 | N#Cc1cccc(C(=O)N=C(Nc2cccc(C(F)(F)F)c2)Nc2ccc3oc(=O)[nH]c3c2)c1 [Compound I-133] | > 10 µM
12 | O=C(N=C(Nc1ccc2[nH]ncc2c1)Nc1ccccc1C(F)(F)F)c1ccc(Br)cc1 [II-1] | < 10 µM
13 | O=C(N=C(Nc1ccc(C2CC2)cc1)Nc1ccc2[nH]c(=O)oc2c1)c1ccc(C(F)(F)F)cc1 [Compound I-137] | < 10 µM
14 | O=C(N=C(Nc1ccc2ccccc2c1)Nc1ccc2[nH]c(=O)oc2c1)c1cccc(Cl)c1 [Compound I-27] | < 10 µM
15 | CC(C)(C)c1ccccc1NC(=NC(=O)c1ccc(Cl)cc1)Nc1ccc2[nH]ncc2c1 [II-6] | < 10 µM
16 | O=C(N=C(Nc1ccc(-c2ccccc2)cc1)Nc1ccc2[nH]c(=O)oc2c1)c1ccc(F)cc1 [Compound I-32] | < 10 µM
17 | N#Cc1cccc(C(=O)N=C(Nc2cccc(C3CC3)c2)Nc2ccc3[nH]c(=O)oc3c2)c1 [Compound I-110] | < 10 µM
18 | CC(C)(C)c1ccccc1NC(=NC(=O)c1ccc(C(F)(F)F)c(F)c1)Nc1ccc2[nH]c(=O)oc2c1 [Compound I-106] | < 10 µM
19 | CC(C)(C)c1cccc(NC(=NC(=O)c2cccc(C#N)c2)Nc2ccc3[nH]c(=O)oc3c2)c1 [Compound I-111] | < 10 µM
20 | O=C(N=C(Nc1cccc(C(F)(F)F)c1)Nc1ccc2[nH]c(=O)oc2c1)c1ccc(C(F)(F)F)cc1 [Compound I-85] | < 10 µM
21 | CC(C)(C)c1ccccc1NC(=NC(=O)c1ccc(C(F)(F)F)cc1)Nc1ccc2oc(=O)[nH]c2c1 [Compound I-129] | < 10 µM
22 | O=C(N=C(Nc1ccc2ccccc2c1)Nc1ccc2[nH]c(=O)[nH]c2c1)c1ccc(Br)cc1 [Compound I-9] | > 10 µM
23 | O=C(N=C(NCCc1c[nH]cn1)Nc1ccccc1C(F)(F)F)c1ccc(F)cc1 [III-3] | > 10 µM
24 | O=C(N=C(NCCc1c[nH]cn1)Nc1ccc2ccccc2c1)c1ccc(Cl)cc1 [III-9] | > 10 µM
25 | O=C(N=C(Nc1ccc2[nH]ncc2c1)Nc1ccccc1C(F)(F)F)c1cccc(Cl)c1 [II-3] | < 10 µM

Row | SMILES | EC50
26 | CC(C)(C)c1ccccc1NC(=NC(=O)c1ccc(Br)cc1)Nc1ccc2[nH]ncc2c1 [II-5] | < 10 µM
27 | O=C(N=C(Nc1ccc2ccccc2c1)Nc1ccc2[nH]c(=O)oc2c1)c1ccc(Br)cc1 [Compound I-25] | < 10 µM
28 | O=C(N=C(NCCc1c[nH]cn1)Nc1ccc2ccccc2c1)c1cccc(Cl)c1 [III-10] | < 10 µM
29 | O=C(N=C(Nc1ccc2ccccc2c1)Nc1ccc2[nH]ncc2c1)c1ccc(Br)cc1 [II-9] | < 10 µM
30 | O=C(N=C(Nc1cccc(C(F)(F)F)c1)Nc1ccc2[nH]c(=O)oc2c1)c1ccc(Cl)cc1 [Compound I-89] | < 10 µM
31 | O=C(N=C(Nc1ccc2ccccc2c1)Nc1ccc2[nH]ncc2c1)c1ccc(F)cc1 [II-12] | < 10 µM
32 | O=C(N=C(Nc1ccc2[nH]c(=O)[nH]c2c1)Nc1ccccc1C(F)(F)F)c1ccc(Br)cc1 [Compound I-1] | > 10 µM
33 | O=C(N=C(Nc1cccc(Cl)c1)Nc1ccc2[nH]c(=O)oc2c1)c1ccc(C(F)(F)F)cc1 [Compound I-88] | < 10 µM
34 | N#Cc1cccc(C(=O)N=C(Nc2cccc(Cl)c2)Nc2ccc3[nH]c(=O)oc3c2)c1 [Compound I-114] | < 10 µM
35 | O=C(N=C(Nc1ccc(-c2ccccc2)cc1)Nc1ccc2[nH]ncc2c1)c1ccc(Br)cc1 [II-13] | < 10 µM
36 | O=C(N=C(Nc1ccc(-c2ccccc2)cc1)Nc1ccc2[nH]c(=O)[nH]c2c1)c1ccc(Cl)cc1 [Compound I-14] | > 10 µM
37 | O=C(N=C(Nc1cccc(Cl)c1)Nc1ccc2[nH]ncc2c1)c1ccc(Cl)cc1 [II-23] | < 10 µM
38 | N#Cc1cccc(C(=O)N=C(Nc2ccc(Cl)cc2)Nc2ccc3[nH]c(=O)oc3c2)c1 [Compound I-115] | < 10 µM
39 | O=C(N=C(Nc1ccc(-c2ccccc2)cc1)Nc1ccc2[nH]c(=O)[nH]c2c1)c1ccc(Br)cc1 [Compound I-13] | > 10 µM
40 | O=C(N=C(Nc1cccc(C(F)(F)F)c1)Nc1ccc2[nH]ncc2c1)c1ccc(Cl)cc1 [II-21] | < 10 µM
41 | CC(C)(C)c1ccccc1NC(=NC(=O)c1cccc(Cl)c1)Nc1ccc2[nH]c(=O)[nH]c2c1 [Compound I-7] | < 10 µM
42 | O=C(N=C(Nc1ccc(-c2ccccc2)cc1)Nc1ccc2[nH]ncc2c1)c1ccc(F)cc1 [II-16] | < 10 µM
43 | CC(C)(C)c1ccccc1NC(=NC(=O)c1ccc(Cl)cc1)Nc1ccc2[nH]c(=O)oc2c1 [Compound I-22] | < 10 µM
44 | CC(C)(C)c1ccccc1NC(=NC(=O)c1ccc(Cl)cc1)NCCc1c[nH]cn1 [III-5] | < 10 µM
45 | O=C(N=C(Nc1ccc(Cl)cc1)Nc1ccc2[nH]ncc2c1)c1ccc(C(F)(F)F)cc1 [II-19] | < 10 µM
46 | CC(C)(C)c1ccccc1NC(=NC(=O)c1ccc(F)cc1)Nc1ccc2[nH]c(=O)oc2c1 [Compound I-24] | < 10 µM
47 | O=C(N=C(Nc1ccc(-c2ccccc2)cc1)Nc1ccc2[nH]c(=O)[nH]c2c1)c1ccc(F)cc1 [Compound I-16] | > 10 µM
48 | CC(C)(C)c1ccccc1NC(=NC(=O)c1cccc(F)c1)Nc1ccc2[nH]c(=O)oc2c1 [Compound I-96] | < 10 µM
49 | O=C(N=C(Nc1ccc2[nH]c(=O)oc2c1)Nc1ccccc1C1CC1)c1ccc(C(F)(F)F)cc1 [Compound I-121] | < 10 µM
50 | CC(C)(C)c1ccccc1NC(=NC(=O)c1cccc(C(F)(F)F)c1)Nc1ccc2[nH]c(=O)oc2c1 [Compound I-95] | < 10 µM

Row | SMILES | EC50
51 | CC(C)(C)c1ccccc1NC(=NC(=O)c1cccc(Cl)c1)Nc1ccc2[nH]ncc2c1 [II-7] | < 10 µM
52 | CC(C)(C)c1ccc(NC(=NC(=O)c2ccc(C(F)(F)F)cc2)Nc2ccc3[nH]c(=O)oc3c2)cc1 [Compound I-128] | < 10 µM
53 | O=C(N=C(Nc1ccc(-c2ccccc2)cc1)Nc1ccc2[nH]c(=O)[nH]c2c1)c1cccc(Cl)c1 [Compound I-15] | > 10 µM
54 | CC(C)(C)c1ccccc1NC(=NC(=O)c1ccc(C(F)(F)F)cc1)Nc1ccc2[nH]c(=O)oc2c1 [Compound I-86] | < 10 µM
55 | O=C(N=C(Nc1ccc2ccccc2c1)Nc1ccc2[nH]c(=O)[nH]c2c1)c1ccc(Cl)cc1 [Compound I-10] | > 10 µM
56 | N#Cc1ccc(C(=O)N=C(Nc2cccc(C(F)(F)F)c2)Nc2ccc3[nH]c(=O)oc3c2)cc1 [Compound I-105] | > 10 µM
57 | O=C(N=C(Nc1ccc2[nH]c(=O)[nH]c2c1)Nc1ccccc1C(F)(F)F)c1ccc(F)cc1 [Compound I-4] | < 10 µM
58 | O=C(N=C(Nc1cccc(C2CC2)c1)Nc1ccc2oc(=O)[nH]c2c1)c1ccc(C(F)(F)F)cc1 [Compound I-135] | > 10 µM
59 | O=C(N=C(Nc1ccc2ccccc2c1)Nc1ccc2[nH]ncc2c1)c1ccc(Cl)cc1 [II-10] | < 10 µM
60 | O=C(N=C(Nc1ccc2[nH]ncc2c1)Nc1ccccc1C(F)(F)F)c1ccc(F)cc1 [II-4] | < 10 µM
61 | O=C(N=C(Nc1cccc(C2CC2)c1)Nc1ccc2[nH]c(=O)oc2c1)c1cccc(C(F)(F)F)c1 [Compound I-109] | < 10 µM
62 | CC(C)(C)c1ccccc1NC(=NC(=O)c1ccc(Br)cc1)Nc1ccc2[nH]c(=O)[nH]c2c1 [Compound I-5] | < 10 µM
63 | Cn1c(=O)oc2cc(NC(=NC(=O)c3ccc(C(F)(F)F)cc3)Nc3ccccc3C(C)(C)C)ccc21 [Compound I-134] | > 10 µM
64 | O=C(N=C(Nc1ccc(-c2ccccc2)cc1)Nc1ccc2[nH]c(=O)oc2c1)c1ccc(Cl)cc1 [Compound I-30] | < 10 µM
65 | N#Cc1cccc(C(=O)N=C(Nc2ccc3[nH]c(=O)oc3c2)Nc2ccccc2Cl)c1 [Compound I-113] | < 10 µM
66 | O=C(N=C(Nc1ccc2ccccc2c1)Nc1ccc2[nH]c(=O)oc2c1)c1ccc(F)cc1 [Compound I-28] | < 10 µM
67 | O=C(N=C(Nc1cccc(Cl)c1)Nc1ccc2[nH]ncc2c1)c1ccc(C(F)(F)F)cc1 [II-20] | < 10 µM
68 | O=C(N=C(Nc1ccc(Cl)cc1)Nc1ccc2[nH]c(=O)oc2c1)c1ccc(C(F)(F)F)cc1 [Compound I-87] | < 10 µM
69 | CC(C)(C)c1cccc(NC(=NC(=O)c2ccc(C(F)(F)F)c(F)c2)Nc2ccc3[nH]c(=O)oc3c2)c1 [Compound I-108] | < 10 µM
70 | O=C(N=C(Nc1ccc2[nH]c(=O)oc2c1)Nc1ccccc1C(F)(F)F)c1ccc(F)cc1 [Compound I-20] | > 10 µM
71 | CC(C)(C)c1ccccc1NC(=NC(=O)c1ccc(Cl)cc1)Nc1ccc2[nH]c(=O)[nH]c2c1 [Compound I-6] | < 10 µM
72 | O=C(N=C(Nc1ccc(-c2ccccc2)cc1)Nc1ccc2[nH]c(=O)oc2c1)c1cccc(Cl)c1 [Compound I-31] | < 10 µM
73 | O=C(N=C(Nc1cc(F)cc(Cl)c1)Nc1ccc2[nH]c(=O)oc2c1)c1ccc(C(F)(F)F)cc1 [Compound I-94] | < 10 µM
74 | O=C(N=C(Nc1ccc2[nH]c(=O)oc2c1)Nc1ccccc1C(F)(F)F)c1ccc(C(F)(F)F)cc1 [Compound I-92] | < 10 µM
